Data published in paper PMC9606729 (RSC Advances, 2022).
Read-outs that look alike come from different tables or passages of the source.

Legend:
HeLa cells [1] = assay: Cellular uptake by flow cytometry; assay type: cell-based, human; details: 10 μM, 4 h in dark, fluorescence vs cells' auto fluorescence
Procedure: Uptake of the complexes 1–3 in HeLa cells were studied by flow cytometric method reported in literature.[42] HeLa cells were treated with 1–3 (10 μM) and incubated for 4 h in dark. The cells were harvested by trypsinization and a suspension in PBS was prepared. The uptake of the green fluorescent complexes in HeLa cells were evaluated by flow cytometry.

HeLa cells [2] = assay: Annexin-V/FITC/PI assay by flow cytometry; assay type: cell-based, human; details: 5 μM
Procedure: The mechanism of light-assisted cell death induced by the complexes was studied by annexin-V/FITC/PI assay using complexes 1 and 3 in 1% DMSO/DMEM.[44] ∼4 × 10^5 HeLa cells seeded in six-well plates were cultured for 24 h. The cells were then incubated with 3 (5 μM) for 4 h in the dark and then exposed to visible light (λ = 400–700 nm, light dose = 10 J cm^−2) in phenol red free media for 1 h. The corresponding dark control experiment was carried out. Cells were incubated for another 19 h and 20 h respectively for the light exposed and unexposed plates in DMEM/10% fetal bovine serum (FBS) buffer in the dark. The medium was discarded, cells were trypsinized and re-suspended in 140 μL Annexin V binding buffer (100 mM HEPES/NaOH, pH 7.4 containing 140 mM NaCl and 2.5 mM CaCl2). Annexin-V/FITC ([…]) and propidium iodide (PI; […]) were added to the cell suspensions, incubated for 5 min and readings were taken using a flow cytometer.

A549 cells [3] = assay: MTT cell viability assay (photocytotoxicity), A549; assay type: cell-based, human; details: for PI (Phototoxic Index) A549: ratio between IC50 in the dark and visible light exposure
Procedure: (§1) The photocytotoxicity of the complexes was assessed using MTT assay based on the ability of mitochondrial dehydrogenases in the viable cells to cleave the tetrazolium rings of MTT and forming dark blue membrane impermeable crystals of formazan that were measured at 570 nm giving an estimate of the number of viable cells.[40] Approximately, 1 × 10^4 cells of HeLa and A549 were plated in a 96-well culture plate in DMEM supplemented with 10% fetal bovine serum and cultured overnight. Different concentrations of the complexes were added to the cells, and incubation was continued for 4 h in dark. After incubation, the medium was replaced with 50 mM phosphate buffer, pH 7.4, containing 150 mM NaCl (PBS) and photo-irradiation was done for 1 h in visible light of 400–700 nm using Luzchem Photoreactor (Model LZC-1, Ontario, Canada; light fluence rate: 2.4 mW cm^−2; light dose = 10 J cm^−2). PBS was replaced with 10% DMEM after irradiation. Incubation was continued for a further period of 19 h in dark for light exposed cells and for 20 h in dark for light unexposed cells followed by addition of 25 μL of 4 mg mL^−1 of MTT to each well and incubated for an additional 3 h. The culture medium was discarded, and a 100 μL volume of DMSO was added to dissolve the formazan crystals. The absorbance at 570 nm was determined using an ELISA microplate reader (BioRad, Hercules, CA, USA). The cytotoxicity of the test compounds was measured as the percentage ratio of the absorbance of the treated cells over the untreated controls. The IC50 values were determined by nonlinear regression analysis (Graphpad Prism, version 7).

HeLa cells [4] = assay: DCFDA assay for detection of ROS; assay type: cell-based, human; details: 5 μM
Procedure: The generation of cellular reactive oxygen species (ROS) was assessed using DCFDA assay.[43] Approximately ∼1 × 10^6 HeLa cells were incubated with complex 3 (5 μM) for 4 h which is followed by photo-irradiation (400–700 nm) for 1 h in PBS. The cells were then harvested by trypsinization and a single cell suspension in PBS was made. After that the cells were treated with DCFDA solution (10 μM, in DMSO) in dark at room temperature for 5 min. The distribution of DCFDA stained HeLa cells was determined by flow cytometry in the FL-1 channel.

[5] = Partition coefficient n-octanol/water, modified shake-flask method; assay type: physicochemical; details: average of three concentrations
Procedure: A modified shake-flask method was used to determine the partition coefficients of the complexes 1–6 between n-octanol and water.[41] Briefly, 5 ml solution of a complex in octanol-saturated water was shaken with 5 ml of water-saturated n-octanol in a falcon tube for ∼30 min using a vortex. The biphasic mixture was centrifuged for ∼5 min at 4000 rpm and the layers were separated. The concentration of the complexes 1–6 in each layer was measured by UV-visible spectroscopy. The partition coefficients of 1–6 were determined at three different concentrations and averaged out.

[6] = biological target: T1, human serum albumin (HSA) (Homo sapiens, UniProt P02768); assay: Protein binding by tryptophan fluorescence quenching; details: fluorescence lifetime of HSA with 10 and 20 μM complex
T1 construct: purchased Sigma (U.S.A.)
T1 sequence (P02768 25-609): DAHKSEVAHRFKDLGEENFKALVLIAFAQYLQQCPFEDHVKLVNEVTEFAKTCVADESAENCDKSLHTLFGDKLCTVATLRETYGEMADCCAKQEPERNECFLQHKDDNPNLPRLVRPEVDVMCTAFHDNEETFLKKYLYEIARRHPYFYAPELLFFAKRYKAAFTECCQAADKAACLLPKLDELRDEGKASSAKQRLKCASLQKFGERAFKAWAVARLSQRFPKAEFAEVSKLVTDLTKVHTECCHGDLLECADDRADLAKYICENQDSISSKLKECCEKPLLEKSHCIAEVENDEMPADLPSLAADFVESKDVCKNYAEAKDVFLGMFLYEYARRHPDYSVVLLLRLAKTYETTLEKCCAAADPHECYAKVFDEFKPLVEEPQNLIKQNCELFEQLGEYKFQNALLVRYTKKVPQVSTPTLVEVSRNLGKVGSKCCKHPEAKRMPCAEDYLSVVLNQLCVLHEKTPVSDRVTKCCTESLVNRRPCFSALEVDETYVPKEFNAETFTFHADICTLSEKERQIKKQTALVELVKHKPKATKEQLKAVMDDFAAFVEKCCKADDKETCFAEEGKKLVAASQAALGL
Procedure: The protein binding study was carried out by tryptophan fluorescence quenching experiments using human serum albumin (HSA, 2 μM) in Tris–HCl buffer (pH 7.2). Quenching of the emission intensity of tryptophan residue (Trp 214) of HSA at 320 nm (excitation wavelength at 280 nm) was monitored using complexes 1–6 as quenchers with increasing concentration.[38]I0/I vs. [complex] plots were constructed. Linear fit of the data using the equation I0/I = 1 + K[Q], where I0 and I are the emission intensity of HSA in the absence of quencher and emission intensity of HSA in the presence of the quencher of concentration [Q] gave the binding constant KHSA values using OriginPro 8. […] Average fluorescence lifetime of pure HSA (2 μM) was measured and compared with its fluorescence lifetime in presence of two different concentrations (10 and 20 μM) of complex 3 using a time-resolved fluorimeter.[39]

HeLa cells [7] = assay: MTT cell viability assay (photocytotoxicity), HeLa; assay type: cell-based, human; details: for PI (Phototoxic Index) HeLa: ratio between IC50 in the dark and visible light exposure
Procedure: as §1

HeLa cells [8] = details: curcumin, cited from earlier work
A549 cells [9] = details: curcumin, cited from earlier work
[10] = visible light (400–700 nm, 10 J cm^−2)
[11] = 4 h treatment followed by 20 h incubation in dark, read-out: IC50 A549 Dark
[12] = 4 h treatment in dark, visible light (400–700 nm, 10 J cm^−2) 1 h, then 19 h in dark, read-out: IC50 A549 Light
[13] = 4 h treatment followed by 20 h incubation in dark, read-out: IC50 HeLa Dark
[14] = 4 h treatment in dark, visible light (400–700 nm, 10 J cm^−2) 1 h, then 19 h in dark, read-out: IC50 HeLa Light

SMILES | uptake in HeLa cells (HeLa cells [1]) | population of cells in early apoptotic stage (HeLa cells [2]; in dark) | population of cells in late apoptotic stage (HeLa cells [2]; in dark) | population of cells in early apoptotic stage (HeLa cells [2]; [10]) | population of cells in late apoptotic stage (HeLa cells [2]; [10]) | IC50 (A549 cells [3]; [11]) | IC50 (A549 cells [3]; [12]) | PI (Phototoxic Index) A549 (A549 cells [3]) | ROS generation (DCF emission) (HeLa cells [4]; 4 h, photo-irradiation (400–700 nm) 1 h) | ROS generation (DCF emission) (HeLa cells [4]; compound treated cells kept in dark) | log Po/w [5] | HSA fluorescence quenching mechanism [6] | IC50 (HeLa cells [7]; [13]) | IC50 (HeLa cells [7]; [14]) | PI (Phototoxic Index) HeLa (HeLa cells [7]) | induction of apoptosis (in words) (HeLa cells [2]; visible light (400–700 nm, 10 J cm^−2) vs dark) | IC50 (HeLa cells [8]; read-out: IC50 HeLa Dark) | IC50 (HeLa cells [8]; read-out: IC50 HeLa Light) | IC50 (A549 cells [9]; read-out: IC50 A549 Dark) | IC50 (A549 cells [9]; read-out: IC50 A549 Light)
COc1cc(/C=C/C(=O)C=C([O-])/C=C/c2ccc(O)c(OC)c2)ccc1O.[Cu+2].[O-][Cl+3]([O-])([O-])[O-].c1ccc2nc3c4cccnc4c4ncccc4c3nc2c1 [Complex 3, [Cu(Cur)(dppz)(ClO4)]] | highest uptake | ~4% | ~8% | ~50% | ~15% | 64.9 ± 4.3 µM | 4.3 ± 0.4 µM | 15.1 | significant increase in emission by DCF | did not show any significant ROS formation | 0.945 | static in nature | 58.9 ± 3.7 µM | 3.7 ± 0.5 µM | 15.9 | – | – | – | – | –
COc1cc(/C=C/C(=O)C=C([O-])/C=C/c2ccc(O)c(OC)c2)ccc1O.[Cu+2].[O-][Cl+3]([O-])([O-])[O-].c1cnc2c(c1)ccc1cccnc12 [Complex 1, [Cu(Cur)(phen)(ClO4)]] | – | – | – | – | – | 85.3 ± 5.4 µM | 8.6 ± 0.8 µM | 9.9 | – | – | −0.525 | – | 56.4 ± 3.5 µM | 6.8 ± 0.9 µM | 8.3 | visible light assisted induction of apoptosis in HeLa cells, however not up to the extent of 3 | – | – | – | –
COc1cc(C=CC(=O)C=C([O-])C=Cc2ccc(O)c(OC)c2)ccc1O.[Cu+2].[O-][Cl+3]([O-])([O-])[O-].c1cnc2c(c1)c1nccnc1c1cccnc12 [Complex 2, [Cu(Cur)(dpq)(ClO4)]] | – | – | – | – | – | 65.6 ± 4.4 µM | 5.7 ± 0.7 µM | 11.5 | – | – | 0.345 | – | 61.9 ± 3.9 µM | 4.7 ± 0.8 µM | 13.2 | – | – | – | – | –
CC(=O)C=C(C)[O-].[Cu+2].[O-][Cl+3]([O-])([O-])[O-].c1ccc2nc3c4cccnc4c4ncccc4c3nc2c1 [Complex 6] | – | – | – | – | – | > 100 µM | 39.8 ± 3.3 µM | >2.5 | – | – | – | – | > 100 µM | 36.9 ± 2.8 µM | >2.7 | – | – | – | – | –
CC(=O)C=C(C)[O-].[Cu+2].[O-][Cl+3]([O-])([O-])[O-].c1cnc2c(c1)c1nccnc1c1cccnc12 [Complex 5, [Cu(acac)(dpq)(ClO4)]] | – | – | – | – | – | > 100 µM | 45.1 ± 3.5 µM | >2.2 | – | – | −0.180 | – | > 100 µM | 46.8 ± 3.9 µM | >2.1 | – | – | – | – | –
COc1cc(/C=C/C(=O)CC(=O)/C=C/c2ccc(O)c(OC)c2)ccc1O [Curcumin, (1E,6E)-1,7-bis(4-hydroxy-3-methoxyphenyl)-1,6-heptadiene-3,5-dione] | – | – | – | – | – | – | – | – | – | – | – | – | – | – | – | – | 85.4 ± 0.6 µM | 8.2 ± 0.2 µM | 61.4 ± 0.4 µM | 19 ± 0.1 µM
CC(=O)C=C(C)[O-].[Cu+2].[O-][Cl+3]([O-])([O-])[O-].c1cnc2c(c1)ccc1cccnc12 [Complex 4, [Cu(acac)(phen)(ClO4)]] | – | – | – | – | – | > 100 µM | 48.8 ± 4.2 µM | – | – | – | – | – | > 100 µM | 41 ± 3.8 µM | – | – | – | – | – | –
